# Columns and labels:
# Type in all cases: cell-based, human
# melanoma cell lines [1] = assay: Apoptosis by flow cytometry using 7-AAD and annexin-V; settings: 1000 IU/mL IFN-gamma 72 hours with pan caspase inhibitor
# Protocol: The methodology of the study was as follows. Autologous and model melanoma tumor cell lines were incubated with 1000 IU/mL of IFN-gamma for 72 hours prior to assaying for autophagy, apoptosis and MHC class II expression. Autophagy was detected by immunobloting with antibodies against LC3 II and by flow cytometry with Enzo's CytoID® Autophagy Detection Kit. Apoptosis and MHC class II induction were assayed by flow cytometry using 7-AAD and annexin-V staining and antibodies against MHC class II, respectively.
# Analysis of tumor cell death and changes in major histocompatibility class II expression in response to IFN-gamma were conducted by use of antibodies directed against MHC class II, annexin-V and 7-amino-actinomycin D (7-AAD) and acquired on a Beckton-Dickenson FACS Calibur® flow cytometer.
# What was investigated was the induction of autophagy, apoptosis and MHC class II molecules after IFN-gamma treatment of melanoma tumor cells in vitro. Autologous and model melanoma tumor cell lines were incubated with 1000 IU/mL of IFN-gamma for 72 hours prior to assaying for autophagy, apoptosis and […] class II expression. Autophagy was detected by immunobloting with antibodies against LC3 II and by flow cytometry with Enzo's CytoID Autophagy Detection Kit. […]
# [2] = test system: autologous melanoma tumor cells; assay: Trypan-blue dye exclusion viability after IFN-gamma; settings: IFN-gamma 72 hours in complete medium; N=47; p=0.014 vs 89.1±6.8% not treated
# Protocol: Pure tumor cells were generated according to Cornforth, et al. (Cornforth, et al. (2011) Cancer Immunol. Immunother. 60:123-131; Dillman, et al. (1993) J. Immunother. Emphasis Tumor Immunol. 14:65-69; Dillman, et al. (2000) Cancer Biother. Radiopharm. 15:161-168). The tumor cells were then incubated with 1,000 U/mL of interferon-gamma (InterMune, Brisbane, Calif.) for 72 h, irradiated with 100Gy from a cesium source and cryopreserved (Selvan, et al. (2007) Int. J. Cancer 122:1374-1383; Selvan, et al. (2010) Melanoma Res. 20:280-292). The IFN-gamma treated and irradiated tumor cells were recovered from cryopreservation, washed with phosphate buffered saline (PBS), and then added to the cultivated dendritic cells (DCs) and then incubated for about 24 h. The antigen-loaded DCs were harvested by gentle scraping with a rubber policeman and cryopreserved. Aliquots of IFN-gamma treated or untreated tumor cells and loaded DCs were obtained for flow cytometry evaluation and trypan-blue exclusion assay. […]
# [3] = test system: autologous melanoma cell lines; assay: Immunoblotting of lysates of melanoma cells incubated with or without IFN-gamma; settings: 1000 IU/mL IFN-gamma 72 hours; four autologous melanoma cell lines
# Protocol: (§1) FIGS. 2A-D show characterization of IFN-gamma treated autologous tumor cells used for loading dendritic cells. Autologous melanoma tumor cells were treated with or without 1000 IU/mL IFN-gamma for 72 hours in 15% FBS/ECS in RPMI, harvested and irradiated with 100Gy and cryopreserved. Cells were then thawed in AIMV and a sample taken for flow cytometry and for preparation of cell lysates for immunoblotting prior to antigen loading of DCs. An example of four separate autologous melanoma cell lines is shown (FIG. 2A, FIG. 2B and FIG. 2C). Induction major histocompatibility complexes by IFN-gamma treatment of autologous tumor cells (FIG. 2D). Tumor cells were harvested after being treated with or without 1000 IU/mL IFN-gamma for 72 hours and then assayed for MHC class I and class II. Control isotype antibodies were used to identify positive populations. Dark data points indicate median mean fluorescent plus/minus 95% confidence interval. N=65. After irradiation, melanoma cells are checked by assays to ensure that there is not any mitosis.
# Cytoplasmic cell lysates were prepared with Mammalian Protein Extraction Reagent (Thermo Scientific, Rockford, Ill.) plus protease inhibitor cocktail (Roche, Indianapolis, Ind.) at 10,000 cells/uL on ice. Approximately 25 uLs/lane of cell lysates were separated on 12.5% tris-glycine gels, transferred to PVDF membrane and probed with antibodies against the following: calreticulin (MBL, Woburn, Mass.), Hsp-60, Hsp-70, Hsp-90 (R&D Systems, Minneapolis, Minn.), HMBG-1 (Cell Signaling, Danvers, Mass.), ICAM-1 (Santa Cruz Biotech, Santa Cruz, Calif.), Mel-4, Mart-1 (Signet, Emeryville, Calif.), tyrosinase (Upstate, Lake Placid, N.Y.) and GADPH (Calbiochem, Darmstadt, Germany).
# Lysates from cells that were incubated in the presence or absence of IFN-gamma were subjected to immunoblotting for a variety of molecules that may be important mediators of immunity (FIG. 1B). […]
# melanoma cell lines [4] = assay: Immunohistochemistry of a panel of melanoma associated antigens with or without IFN-gamma; settings: 1000 IU/mL IFN-gamma 72 hours, N=27 samples
# Protocol: Expression of a panel antigens by melanoma lines were determined using immunocytochemical procedure. Cells were cultured in 8-chamber culture slides (Thermo Fisher, Rochester, N.Y.) in the presence or absence of 1000 IU/mL IFN-gamma. After 72 hours, the cells were washed 3 times with 1× Phosphate Buffered Saline (PBS) and fixed in cold acetone. After blocking endogenous peroxidase, cells were incubated with appropriate primary antibodies against the antigens listed. Immunohistochemistry was performed using biotinylated anitmouse or rabbit immunoglobulins, Super Sensitive enzyme-conjugated streptavidin labeling and horse radish peroxidase chromogen, and substrate kits (Biogenex, San Ramon, Calif.). The reactivity of the following anti-human polyclonal or monoclonal antibodies was investigated with isotype matched control antibody: S-100 and HMB-45 (Biogenex, San Ramon, Calif.), Mel-2, Mel-5, Mart-1 (Signet, Dedham, Mass.), Tyrosinase and Mage-1 (Thermo Scientific, Fremont, Calif.), Melan-A, HLA-class I and HLA-class II (Dako, Denmark).
# Lysates from cells that were incubated in the presence or absence of IFN-gamma were subjected to immunoblotting for a variety of molecules that may be important mediators of immunity (FIG. 1B). In the setting of melanoma cells treated with IFN-gamma, heat shock proteins appear to be differentially regulated but remain largely present in the cell preparations, especially in the case of hsp-70.
# MHC class II = assay: Flow cytometry of MHC class II induction by IFN-gamma in autologous tumor cells; settings: 1000 IU/mL IFN-gamma 72 hours
# Protocol: as §1
# Phenotypic characterization of the dendritic cell populations were performed using monoclonal antibodies against surface markers obtained from BD Pharmingen San Diego, Calif.: anti-MHC class II conjugated to PerCp, anti CD11c conjugated to APC, anti-CD80, anti-CD83, anti-CD86 conjugated to PE. Isotype controls were used to determine percent positive cells. […]
# SK-5-Mel cells = assay: Autophagy by flow cytometry (Enzo CytoID Autophagy Detection), IFN-gamma with or without z-VAD; settings: 1000 IU/mL IFN-gamma 72 hours; 20 uM z-VAD where present; vs 5% FBS/RPMI
# Protocol: FIGS. 6A and 6B reveal apoptosis and autophagy induced in response to interferon-gamma. SK-5-Mel cells were incubated with 1000 IU/mL of IFN-gamma for 72 hours after which non-adherent and adherent populations were collected and assayed for apoptosis and autophagy by flow cytometry using […] and Annexin-V (FIG. 6A). Enzo Cyto-ID Autophagy Detection Dye was used to measure autophagy by flow cytometry by measuring the mean intensity peak shift of dye provided by the manufacturer (FIG. 6B). Fold changes in the peak shift in comparison to 5% FBS/RPMI are shown in FIG. 6C with serum-free as positive control for the induction of autophagy.
# SK-5-Mel cells were treated with 1000 IU/mL of IFN-gamma in the presence of 20 uM of the pan-caspase inhibitor z-VAD or its control compound, z-FA for 72 hours. The cells were harvested and assayed for autophagy by flow cytometry as in FIG. 6C.
# The methodology of the study was as follows. […] Autophagy was detected by immunobloting with antibodies against LC3 II and by flow cytometry with Enzo's CytoID® Autophagy Detection Kit. […]
# What was investigated was the induction of autophagy, apoptosis and MHC class II molecules after IFN-gamma treatment of melanoma tumor cells in vitro. […] Autophagy was detected by immunobloting with antibodies against LC3 II and by flow cytometry with Enzo's CytoID Autophagy Detection Kit. […]
Substance,apoptosis in IFN-gamma treated cells (melanoma cell lines [1]),viability (trypan-blue dye exclusion) [2] [%],ICAM-1 expression (immunoblot) [3],calreticulin and HMGB-1 expression (immunoblot) [3],"common melanoma antigens (mel-4, Mart-1 and tyrosinase) expression (immunoblot) [3]",Change after IFN-gamma treatment: Down (melanoma cell lines [4]; antigen MAGE-1) [%],Change after IFN-gamma treatment: None (melanoma cell lines [4]; antigen Mel-2) [%],Change after IFN-gamma treatment: Down (melanoma cell lines [4]; antigen Tyrosinase) [%],Change after IFN-gamma treatment: None (melanoma cell lines [4]; antigen Tyrosinase) [%],cases with MHC class II induction greater than two fold (MHC class II) [%],"autophagy, fold change of peak shift (SK-5-Mel cells) [fold change]"
carbobenzoxy-valyl-alanyl-aspartyl-[O-methyl]-fluoromethylketone [Z-VAD],prevents apoptosis,–,–,–,–,–,–,–,–,–,–
"interferon-gamma [IFN-gamma, interferon-gamma (InterMune, Brisbane, Calif.), type II interferon, used at 1000 IU/mL for 72 hours on melanoma cells]",–,84.9±9.3,significantly up-regulated,up-regulated in some cases,down regulated,61.5,46.2,60.0,40.0,70,2.75±0.15

# From patent publication US9555058B2, “Antigen presenting cancer vaccine” (CALIFORNIA STEM CELL, INC., priority 2011, dated 2017)
